These results are taken from article PMC12661400, “Oral bioavailable ITRI-148 degrades androgen receptor variants and overcomes antiandrogen resistance in advanced prostate cancer” (Neoplasia (New York, N.Y.), 2025).

One assay has as its system CWR22Rv1 cell. Put plainly: CWR22Rv1 cell viability after 3 days of 10 μM compound (linker screen). To be noted: 72 h, CWR22Rv1, 10 μM compound. It counts as cell-based.
Another assay addresses T1, AR(L702H) (Homo sapiens, UniProt P10275, L702H).
T1 construct: expressed in transfected cells; host or cells: DU145
T1 sequence (P10275 1-920 L702H): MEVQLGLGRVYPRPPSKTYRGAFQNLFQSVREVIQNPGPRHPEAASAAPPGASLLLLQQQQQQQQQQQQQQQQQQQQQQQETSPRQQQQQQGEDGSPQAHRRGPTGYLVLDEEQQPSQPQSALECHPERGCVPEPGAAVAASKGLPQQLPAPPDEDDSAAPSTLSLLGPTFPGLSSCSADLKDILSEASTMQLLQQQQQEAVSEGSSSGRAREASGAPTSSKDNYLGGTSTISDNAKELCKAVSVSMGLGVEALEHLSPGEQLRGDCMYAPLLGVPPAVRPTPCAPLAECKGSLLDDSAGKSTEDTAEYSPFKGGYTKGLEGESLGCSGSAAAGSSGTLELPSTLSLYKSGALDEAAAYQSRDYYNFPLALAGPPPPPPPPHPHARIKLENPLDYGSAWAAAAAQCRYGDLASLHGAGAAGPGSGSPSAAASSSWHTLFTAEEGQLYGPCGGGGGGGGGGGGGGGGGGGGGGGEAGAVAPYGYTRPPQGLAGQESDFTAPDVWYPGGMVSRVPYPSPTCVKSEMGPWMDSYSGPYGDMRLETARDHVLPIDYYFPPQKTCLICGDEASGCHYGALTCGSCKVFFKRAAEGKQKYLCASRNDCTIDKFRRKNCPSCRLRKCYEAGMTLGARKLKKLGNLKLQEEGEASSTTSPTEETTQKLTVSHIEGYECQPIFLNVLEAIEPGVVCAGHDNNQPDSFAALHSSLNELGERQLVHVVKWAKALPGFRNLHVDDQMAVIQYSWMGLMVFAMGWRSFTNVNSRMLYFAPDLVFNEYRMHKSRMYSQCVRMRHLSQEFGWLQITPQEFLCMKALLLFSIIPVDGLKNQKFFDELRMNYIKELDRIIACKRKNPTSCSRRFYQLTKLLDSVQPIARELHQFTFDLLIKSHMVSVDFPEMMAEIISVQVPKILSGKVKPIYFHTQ
Put plainly: Degradation of ectopic Myc-tagged AR mutant in DU145 cells (western blot). The format is cell-based. To be noted: 10 μM, 24 hours. The source says: pLenti4/TO/Flag-AR and pLenti4/TO/Flag-AR(∆LBD) plasmids are as described previously. To generate pLenti4/TO/Flag-AR-V7 plasmid, the DNA fragment of AR-V7 was amplified from pEGFP-C1-AR V7, a gift from Michael A Mancini (Addgene plasmid # 86856), and inserted into the pLenti4/TO plasmid carrying a N-terminal Flag tag between BamH1 and XhoI. The AR(L702H) and AR(H875Y) mutants were generated by site-directed mutagenesis of pCMV-Myc-AR, which is previously constructed and described in [22]. Primers used in the cloning and mutagenesis are: […]
Cell lysis, Western blotting, and AR ubiquitination were performed as described in [17]. […]
Fig. 1 ITRI-148 induces degradation of both AR and AR-V7 proteins in CRPC cells. […] AR-V7 expression was detected using an anti-Flag antibody. […] An N-terminal AR antibody was used to detect both full-length AR and LBD-truncated variants (AR-V(ΔLBD)) in CWR22Rv1 cells, while AR-V7 was detected using an AR-V7-specific antibody. DC₅₀ values were calculated from normalized band intensities, and Dₘₐₓ represents the maximal degradation achieved at 10 μM ITRI-148. (D) Immunofluorescence staining of AR after 24 or 48 hours of ITRI-148 treatment, detected using an N-terminal AR antibody. […] Quantified AR levels are as indicated. […]
(In general: In western blotting, separated proteins are transferred to a membrane and probed.)

Consider `O=C1CCC(N2C(=O)c3cccc(NCC(=O)N4CCC(N5CCC(C#Cc6ccc(C7CCN(C8=Nn9c(nnc9C(F)(F)F)CC8)CC7)cc6)CC5)CC4)c3C2=O)C(=O)N1` (centres unmarked) [ITRI-148], for which, in the assay on CWR22Rv1 cell, the viability – broadly, the share of living cells, or the viability signal relative to a control – at 10 µM was 1.71%. For the same molecule, at AR(L702H), the “degradation of Myc-tagged AR mutant L702H” value was “degraded”.
